Experimental data: the NIST ThermoML archive (doi:10.1016/j.fluid.2012.12.028)

Settings: Liquid, Ebulliometric method (Recirculating still)

CON=C(C)C [propan-2-one O-methyl oxime]
Settings	vapor or sublimation pressure [kPa]
307.8 K	21.3
312.4 K	26.3
316.6 K	32.3
319.6 K	36.3
322.9 K	42.3
327.6 K	51.3
330 K	56.3
332.2 K	61.3
334.2 K	66.3
336.1 K	71.3
337.7 K	76.3
339.6 K	81.3
341 K	86.3
342.6 K	91.3
344.1 K	96.3
